Holding throughout (assay): Kinase panel enzymatic inhibition assay (Nanosyn)
Common to all, as to format: biochemical
Holding throughout (conditions): compound 5 μM; ATP at Km; 30-minute pre-incubation

One assay addresses T1, CSF1R (Homo sapiens, UniProt P07333).
T1 construct: purchased Nanosyn (contract screening)
An outline of the steps: (§1)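 Single-point screen: compound 5 μM, ATP at Km per kinase, 30 min pre-incubation. Readout by mobility shift (Caliper LabChip), ADP detection or TR-fluorescence. Reported as % inhibition or IC50.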

In another assay the target is T2, DDR2 (Homo sapiens, UniProt Q16832).
T2 construct: purchased Nanosyn (contract screening)
T2 sequence (Q16832 22-855): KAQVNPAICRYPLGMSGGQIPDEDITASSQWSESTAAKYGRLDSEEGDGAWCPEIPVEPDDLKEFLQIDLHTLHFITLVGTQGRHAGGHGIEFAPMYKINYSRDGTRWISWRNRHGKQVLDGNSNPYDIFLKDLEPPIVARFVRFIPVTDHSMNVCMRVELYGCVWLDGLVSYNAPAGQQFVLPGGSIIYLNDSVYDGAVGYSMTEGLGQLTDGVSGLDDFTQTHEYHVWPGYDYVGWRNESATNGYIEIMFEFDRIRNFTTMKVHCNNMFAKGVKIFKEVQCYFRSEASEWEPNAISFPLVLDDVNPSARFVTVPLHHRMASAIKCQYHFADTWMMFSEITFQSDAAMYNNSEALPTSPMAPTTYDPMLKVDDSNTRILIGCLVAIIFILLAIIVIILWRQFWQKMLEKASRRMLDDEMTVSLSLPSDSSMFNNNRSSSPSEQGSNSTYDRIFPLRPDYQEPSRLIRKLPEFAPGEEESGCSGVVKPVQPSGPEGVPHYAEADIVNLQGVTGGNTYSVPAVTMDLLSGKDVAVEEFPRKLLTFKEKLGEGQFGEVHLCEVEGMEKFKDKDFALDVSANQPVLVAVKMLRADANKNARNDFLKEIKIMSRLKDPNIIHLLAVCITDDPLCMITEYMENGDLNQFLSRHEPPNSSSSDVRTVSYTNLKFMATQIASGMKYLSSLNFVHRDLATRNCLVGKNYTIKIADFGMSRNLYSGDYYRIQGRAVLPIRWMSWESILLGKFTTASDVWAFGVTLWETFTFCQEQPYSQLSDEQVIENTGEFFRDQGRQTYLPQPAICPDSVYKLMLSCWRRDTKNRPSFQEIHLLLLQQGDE
An outline of the steps:
as §1

The next assay deals with EPH. An outline of the steps: as §1
For another assay, the target named is T3, HGK (Homo sapiens, UniProt O95819).
T3 construct: purchased Nanosyn (contract screening)
An outline of the steps: as §1

The target of another assay is T4, KDR (Homo sapiens, UniProt P35968).
T4 construct: purchased Nanosyn (contract screening)
An outline of the steps: as §1

The next assay has as its target T5, KIT (Homo sapiens, UniProt P10721).
T5 construct: purchased Nanosyn (contract screening)
The procedure, abridged: as §1

A further assay has as its target T6, LCK (Homo sapiens, UniProt P06239).
T6 construct: purchased Nanosyn (contract screening)
The procedure, abridged: as §1

Another assay deals with T7, SRC (Homo sapiens, UniProt P12931).
T7 construct: Nanosyn (contract laboratory that ran the panel)
The procedure, abridged:
as §1

The target in another assay is T8, TAOK2 (Homo sapiens, UniProt Q9UL54).
T8 construct: Nanosyn (contract laboratory that ran the panel)
T8 sequence (Q9UL54 1-1235): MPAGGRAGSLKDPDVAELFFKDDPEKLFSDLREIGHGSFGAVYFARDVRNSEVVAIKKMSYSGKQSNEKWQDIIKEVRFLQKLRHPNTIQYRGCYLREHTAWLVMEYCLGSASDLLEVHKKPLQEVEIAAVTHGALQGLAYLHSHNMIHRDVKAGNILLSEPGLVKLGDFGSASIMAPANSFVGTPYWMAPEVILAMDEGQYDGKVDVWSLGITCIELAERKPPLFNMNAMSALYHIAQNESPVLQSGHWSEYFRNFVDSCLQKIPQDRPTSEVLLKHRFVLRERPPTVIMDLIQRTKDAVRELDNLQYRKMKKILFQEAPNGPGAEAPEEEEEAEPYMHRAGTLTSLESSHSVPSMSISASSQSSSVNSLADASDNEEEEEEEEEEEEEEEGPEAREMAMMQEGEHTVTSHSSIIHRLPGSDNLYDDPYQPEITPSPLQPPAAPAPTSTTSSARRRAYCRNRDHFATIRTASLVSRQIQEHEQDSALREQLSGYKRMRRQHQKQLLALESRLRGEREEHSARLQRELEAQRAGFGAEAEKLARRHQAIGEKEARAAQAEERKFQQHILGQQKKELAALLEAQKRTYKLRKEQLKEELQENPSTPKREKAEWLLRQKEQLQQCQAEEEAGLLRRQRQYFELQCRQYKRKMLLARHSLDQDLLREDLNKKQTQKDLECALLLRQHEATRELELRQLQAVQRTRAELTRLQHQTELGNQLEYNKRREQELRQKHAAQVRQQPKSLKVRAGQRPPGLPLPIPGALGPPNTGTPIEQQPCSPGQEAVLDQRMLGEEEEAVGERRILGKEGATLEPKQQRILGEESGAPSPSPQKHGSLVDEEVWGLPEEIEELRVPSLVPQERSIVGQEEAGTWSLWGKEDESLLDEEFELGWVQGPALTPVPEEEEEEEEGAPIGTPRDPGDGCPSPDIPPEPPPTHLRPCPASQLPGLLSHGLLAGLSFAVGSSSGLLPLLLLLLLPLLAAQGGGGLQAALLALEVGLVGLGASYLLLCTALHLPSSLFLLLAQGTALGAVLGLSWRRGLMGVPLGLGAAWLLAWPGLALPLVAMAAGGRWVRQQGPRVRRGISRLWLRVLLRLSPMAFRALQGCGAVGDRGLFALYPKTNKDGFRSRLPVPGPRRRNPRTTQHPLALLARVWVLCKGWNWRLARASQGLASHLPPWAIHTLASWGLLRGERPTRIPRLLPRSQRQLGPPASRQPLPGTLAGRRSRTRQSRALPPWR
An outline of the steps:
as §1

The target in the next assay is T9, TNIK (Homo sapiens, UniProt Q9UKE5).
T9 construct: Nanosyn (contract laboratory that ran the panel)
The procedure, abridged:
as §1

Structures are written as SMILES.

T6 sequence (P06239 whole entry): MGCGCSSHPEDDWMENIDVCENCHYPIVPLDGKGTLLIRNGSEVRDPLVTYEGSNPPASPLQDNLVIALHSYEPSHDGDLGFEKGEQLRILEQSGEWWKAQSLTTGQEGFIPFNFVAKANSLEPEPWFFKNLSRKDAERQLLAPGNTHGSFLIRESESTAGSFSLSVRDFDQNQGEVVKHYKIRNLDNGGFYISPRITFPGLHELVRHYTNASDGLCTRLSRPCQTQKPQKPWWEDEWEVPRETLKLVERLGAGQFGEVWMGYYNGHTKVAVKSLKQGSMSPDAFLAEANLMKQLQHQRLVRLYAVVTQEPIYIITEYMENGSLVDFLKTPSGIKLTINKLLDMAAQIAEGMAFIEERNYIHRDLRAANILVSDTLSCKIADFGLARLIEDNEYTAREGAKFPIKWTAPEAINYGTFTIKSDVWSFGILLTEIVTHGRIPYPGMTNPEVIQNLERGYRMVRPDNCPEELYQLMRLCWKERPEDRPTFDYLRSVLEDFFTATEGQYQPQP
T1 sequence (P07333 20-972): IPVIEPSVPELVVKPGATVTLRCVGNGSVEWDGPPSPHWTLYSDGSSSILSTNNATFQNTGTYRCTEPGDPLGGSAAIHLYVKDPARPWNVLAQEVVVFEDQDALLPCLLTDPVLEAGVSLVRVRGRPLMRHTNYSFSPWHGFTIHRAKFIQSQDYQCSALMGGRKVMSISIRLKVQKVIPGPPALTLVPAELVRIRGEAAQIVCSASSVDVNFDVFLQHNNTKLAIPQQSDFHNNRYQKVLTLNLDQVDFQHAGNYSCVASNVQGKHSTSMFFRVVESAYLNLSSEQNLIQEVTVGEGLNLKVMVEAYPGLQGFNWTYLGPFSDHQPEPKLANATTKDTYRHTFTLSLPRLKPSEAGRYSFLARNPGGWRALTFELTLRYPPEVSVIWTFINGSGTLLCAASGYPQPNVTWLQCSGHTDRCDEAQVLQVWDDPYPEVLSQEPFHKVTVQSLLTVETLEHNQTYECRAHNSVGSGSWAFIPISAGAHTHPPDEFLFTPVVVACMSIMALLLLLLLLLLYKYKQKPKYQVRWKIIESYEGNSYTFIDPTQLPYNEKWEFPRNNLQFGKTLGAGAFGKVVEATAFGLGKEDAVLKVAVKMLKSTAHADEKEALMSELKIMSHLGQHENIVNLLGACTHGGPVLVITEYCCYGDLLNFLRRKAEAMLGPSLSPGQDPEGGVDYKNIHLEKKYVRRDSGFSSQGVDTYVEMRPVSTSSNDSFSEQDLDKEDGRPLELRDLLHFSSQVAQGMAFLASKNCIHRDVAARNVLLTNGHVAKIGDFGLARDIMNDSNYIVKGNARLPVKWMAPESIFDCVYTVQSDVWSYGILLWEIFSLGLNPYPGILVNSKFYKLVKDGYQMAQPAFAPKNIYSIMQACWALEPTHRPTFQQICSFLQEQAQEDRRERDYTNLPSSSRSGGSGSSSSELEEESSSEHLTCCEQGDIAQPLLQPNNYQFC
T7 sequence (P12931 whole entry): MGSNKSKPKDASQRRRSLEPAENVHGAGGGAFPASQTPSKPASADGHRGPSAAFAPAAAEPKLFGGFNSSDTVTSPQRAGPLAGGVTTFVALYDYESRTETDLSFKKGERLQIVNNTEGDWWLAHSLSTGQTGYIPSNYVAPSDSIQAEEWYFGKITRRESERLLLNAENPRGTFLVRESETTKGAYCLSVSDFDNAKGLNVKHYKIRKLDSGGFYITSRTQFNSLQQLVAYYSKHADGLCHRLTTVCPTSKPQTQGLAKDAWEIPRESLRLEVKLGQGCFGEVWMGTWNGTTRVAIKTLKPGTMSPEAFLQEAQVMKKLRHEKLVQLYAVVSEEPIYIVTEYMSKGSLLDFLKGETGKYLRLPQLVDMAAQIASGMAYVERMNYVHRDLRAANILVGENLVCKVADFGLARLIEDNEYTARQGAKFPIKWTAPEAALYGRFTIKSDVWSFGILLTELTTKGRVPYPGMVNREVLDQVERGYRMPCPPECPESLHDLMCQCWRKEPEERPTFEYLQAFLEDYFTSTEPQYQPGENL
T9 sequence (Q9UKE5 whole entry): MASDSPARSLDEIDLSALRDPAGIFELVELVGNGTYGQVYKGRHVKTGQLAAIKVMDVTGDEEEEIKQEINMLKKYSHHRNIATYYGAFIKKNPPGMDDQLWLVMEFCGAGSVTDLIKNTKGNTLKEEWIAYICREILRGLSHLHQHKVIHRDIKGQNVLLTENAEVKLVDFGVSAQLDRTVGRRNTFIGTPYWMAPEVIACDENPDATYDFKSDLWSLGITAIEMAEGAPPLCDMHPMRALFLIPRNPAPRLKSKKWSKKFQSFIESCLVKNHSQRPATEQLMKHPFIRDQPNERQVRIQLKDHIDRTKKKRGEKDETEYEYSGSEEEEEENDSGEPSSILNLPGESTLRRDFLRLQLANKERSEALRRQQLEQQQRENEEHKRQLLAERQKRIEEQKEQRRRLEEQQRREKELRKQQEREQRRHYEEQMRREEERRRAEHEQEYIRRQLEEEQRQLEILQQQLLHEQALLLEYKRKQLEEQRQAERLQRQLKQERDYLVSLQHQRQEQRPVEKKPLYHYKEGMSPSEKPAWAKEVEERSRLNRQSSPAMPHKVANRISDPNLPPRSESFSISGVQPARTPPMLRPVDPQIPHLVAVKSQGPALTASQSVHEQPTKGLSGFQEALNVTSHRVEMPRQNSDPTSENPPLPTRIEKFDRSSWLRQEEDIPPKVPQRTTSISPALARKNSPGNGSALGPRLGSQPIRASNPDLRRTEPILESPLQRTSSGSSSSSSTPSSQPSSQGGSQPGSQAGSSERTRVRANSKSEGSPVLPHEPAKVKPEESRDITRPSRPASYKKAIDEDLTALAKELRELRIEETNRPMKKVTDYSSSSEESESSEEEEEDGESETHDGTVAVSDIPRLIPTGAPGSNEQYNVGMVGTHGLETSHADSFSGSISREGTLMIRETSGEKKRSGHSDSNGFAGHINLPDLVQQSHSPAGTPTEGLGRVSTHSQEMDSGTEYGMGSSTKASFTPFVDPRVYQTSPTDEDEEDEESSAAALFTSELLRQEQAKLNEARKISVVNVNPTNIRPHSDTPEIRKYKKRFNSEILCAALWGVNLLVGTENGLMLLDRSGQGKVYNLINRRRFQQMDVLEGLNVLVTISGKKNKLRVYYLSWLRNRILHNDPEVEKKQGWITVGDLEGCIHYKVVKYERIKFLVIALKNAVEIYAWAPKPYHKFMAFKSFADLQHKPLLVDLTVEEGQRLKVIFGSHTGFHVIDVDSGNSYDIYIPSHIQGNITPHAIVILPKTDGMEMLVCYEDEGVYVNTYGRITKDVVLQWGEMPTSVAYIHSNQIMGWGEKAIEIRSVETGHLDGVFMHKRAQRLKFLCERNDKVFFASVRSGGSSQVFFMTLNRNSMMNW
T3 sequence (O95819 whole entry): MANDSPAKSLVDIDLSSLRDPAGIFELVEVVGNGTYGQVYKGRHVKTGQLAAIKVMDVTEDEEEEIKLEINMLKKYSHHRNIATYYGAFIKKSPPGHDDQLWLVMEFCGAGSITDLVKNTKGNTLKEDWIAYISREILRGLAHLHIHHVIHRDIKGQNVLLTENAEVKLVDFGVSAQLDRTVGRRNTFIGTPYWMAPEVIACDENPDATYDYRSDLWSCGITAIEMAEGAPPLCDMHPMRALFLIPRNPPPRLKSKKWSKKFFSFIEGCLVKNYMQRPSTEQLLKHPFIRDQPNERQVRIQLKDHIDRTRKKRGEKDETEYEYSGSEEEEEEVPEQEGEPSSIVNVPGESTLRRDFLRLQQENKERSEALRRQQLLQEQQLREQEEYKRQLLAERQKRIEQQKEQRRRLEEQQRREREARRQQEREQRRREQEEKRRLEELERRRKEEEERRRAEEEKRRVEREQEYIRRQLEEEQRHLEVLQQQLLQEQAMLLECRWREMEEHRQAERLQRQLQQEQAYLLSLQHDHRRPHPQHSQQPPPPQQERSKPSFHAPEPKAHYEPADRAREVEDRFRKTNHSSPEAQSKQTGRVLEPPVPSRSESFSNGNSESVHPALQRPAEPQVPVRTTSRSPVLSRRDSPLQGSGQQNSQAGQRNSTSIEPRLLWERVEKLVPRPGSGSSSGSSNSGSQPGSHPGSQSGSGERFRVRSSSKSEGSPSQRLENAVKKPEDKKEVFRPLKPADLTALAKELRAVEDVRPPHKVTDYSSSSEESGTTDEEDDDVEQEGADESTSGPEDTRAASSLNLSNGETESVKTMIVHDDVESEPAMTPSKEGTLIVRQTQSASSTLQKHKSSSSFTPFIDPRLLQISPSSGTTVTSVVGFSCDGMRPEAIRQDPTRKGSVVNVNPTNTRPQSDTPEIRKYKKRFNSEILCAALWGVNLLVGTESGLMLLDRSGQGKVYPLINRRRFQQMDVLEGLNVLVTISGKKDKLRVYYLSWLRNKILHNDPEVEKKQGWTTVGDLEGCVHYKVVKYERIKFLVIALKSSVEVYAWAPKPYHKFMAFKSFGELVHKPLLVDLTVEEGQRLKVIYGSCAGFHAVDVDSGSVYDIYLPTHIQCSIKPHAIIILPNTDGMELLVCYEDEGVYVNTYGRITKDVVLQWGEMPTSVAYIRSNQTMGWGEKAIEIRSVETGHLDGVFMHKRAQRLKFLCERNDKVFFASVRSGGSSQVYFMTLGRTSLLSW

Consider `Cc1ccc(NC(=O)c2cc(S(C)(=O)=O)n(-c3ccc(F)cc3)n2)cc1Nc1nccc(-c2cccnc2N)n1` [Ex13, N-(3-((4-(2-aminopyridin-3-yl)pyrimidin-2-yl)amino)-4-methylphenyl)-1-(4-fluorophenyl)-5-(methylsulfonyl)-1H-pyrazole-3-carboxamide], for which the inhibition at 5 µM is no less than 95% against CSF1R; no less than 95% against DDR2; less than 79% against HGK; less than 79% against KDR; no less than 95% against KIT; 90 to 94% against LCK. In addition, the inhibition at 5 µM on SRC, against TAOK2 and against TNIK was less than 79% in each case. Also, the “kinase inhibition, EPH” value in the assay on EPH was “D (D=79% and less)”.
For the molecule `Cc1ccc(NC(=O)c2cc([S+](C)[O-])n(-c3ccc(F)cc3)n2)cc1Nc1ccc2ncn(C)c(=O)c2c1` (stereo not drawn) [Ex5, 1-(4-fluorophenyl)-N-(4-methyl-3-((3-methyl-4-oxo-3,4-dihydroquinazolin-6-yl)amino)phenyl)-5-(methylsulfinyl)-1H-pyrazole-3-carboxamide], the inhibition at 5 µM is less than 79% on CSF1R; less than 79% against DDR2; less than 79% on HGK; less than 79% on KDR; 80 to 89% on KIT; 90 to 94% against LCK. Besides, the inhibition at 5 µM against SRC, against TAOK2 and on TNIK was less than 79% each time. The “kinase inhibition, EPH” value with EPH is “D (D=79% and less)”.
As to `Cc1ccc(NC(=O)c2cc(S(C)(=O)=O)n(-c3ccc(F)cc3)n2)cc1C#Cc1cnc2cccnn12` [Ex14, 1-(4-fluorophenyl)-N-(3-(imidazo[1,2-b]pyridazin-3-ylethynyl)-4-methylphenyl)-5-(methylsulfonyl)-1H-pyrazole-3-carboxamide], the inhibition at 5 µM on CSF1R is 90 to 94%; at DDR2 it was no less than 95%; on HGK, less than 79%; at KDR, 90 to 94%; against KIT it was 90 to 94%; against LCK, no less than 95%. In addition, the inhibition at 5 µM against SRC, on TAOK2 and on TNIK was less than 79% in each case. For the same molecule, in the assay with EPH, the “kinase inhibition, EPH” value is “D (D=79% and less)”.

The term inhibition denotes the change of the read-out against control, counted positive when it falls. Read a high inhibition as a strong effect.

The values above are taken from patent US20240400577A1, “MODULATORS OF PROTEIN KINASES” (VIBLIOME THERAPEUTICS, LLC, priority 2021, published 2024).
